Test results published in patent publication US10335365B2, “Bladder cancer specific ligand peptides” (The Regents of the University of California, priority 2009, dated 2019).
Positions of bridges follow the written chain, without caps; N, C: chain ends. Non-standard residues stand in square brackets, D forms with d. No end group written: not given here.

Key:
normal urothelial cells = experiment: Whole cell bead binding assay, normal urothelial cells; set-up: species or system human; settings: peptide on OBOC beads
Description: Four bladder cancer cell lines including 5637 (HTB-9), SCaBER, TCCSUP (HTB-5), and T24 (HTB-4) were purchased from the American Type Culture Collection (Manassas, Va.). The isolation, characterization and maintenance of normal urothelial cells was previously described in detail (Bagai, et al., J Biol Chem, (2002) 277: 23828-23837). Normal peripheral blood mononuclear cells were prepared by using the Ficoll-Paque gradient method from peripheral blood of healthy donors. Bladder cancer tissue obtained from cystectomy was cut into pieces, digested with collagenase at 37° C. for 1-2 hours per the manufacturer's protocol, and filtered through a 40-μm strainer to make single cell suspension. Tumor cells were then isolated with Ficoll-Paque gradient method (800 g, 30 min at 4° C.). Informed consent was obtained from each patient or healthy donor before specimens were collected.
The beads were washed extensively with double-distilled water and phosphate-buffered saline (PBS) before screening. Bladder cancer cells and normal urothelial cells were detached from culture dishes with trypsin/EDTA or a Detach kit (PromoCell, Heidelberg, Germany), washed with their corresponding culture medium, resuspended at 10^6 cells/ml and incubated with OBOC beads in Petri dishes in a humidified CO2 incubator at 37° C. with shaking (60 rpm). […]

[1] = system: bladder TCC cell lines 5637, T24 and TCCSUP; experiment: Whole cell bead binding assay, bladder TCC cell lines; set-up: species or system human; settings: peptide on OBOC beads; 5637, T24, TCCSUP
Description: The beads were washed extensively with double-distilled water and phosphate-buffered saline (PBS) before screening. Bladder cancer cells and normal urothelial cells were detached from culture dishes with trypsin/EDTA or a Detach kit (PromoCell, Heidelberg, Germany), washed with their corresponding culture medium, resuspended at 10^6 cells/ml and incubated with OBOC beads in Petri dishes in a humidified CO2 incubator at 37° C. with shaking (60 rpm). Beads bound by cells appeared as rosettes with a central bead covered by a layer(s) of cells under a microscope. The positive beads were picked with a pipette under inverted microscope, treated with Quanidine HCl (8M, 20 min) to remove cells and proteins on beads surface, and underwent a second round of incubation with the same cells to confirm the binding. Only those beads with cell bindings at both rounds were sent for the amino acid sequencing as previously described (Peng, et al., Nat Chem Biol, (2006) 2: 381-389).
Whole cell bead binding assay was used to screen libraries for peptides that bind bladder cancer cell cultures (FIG. 1). Approximately 150,000 library beads (peptides) were screened against each of 4 bladder cancer cell lines (three transitional cell carcinoma (TCC) lines: T24, TCCSUP and 5637, and one squamous cell line SCaBER). […]

[2] = system: normal canine bladder urothelial cells; experiment: Whole cell binding assay of Example 2, normal canine urothelial cells; settings: PLZ4 beads
Description: This experiment was repeated 3 times for cell lines. […] 5637 human bladder cancer cell line; b. […] The average diameter of the beads is 90 μm. […] This experiment was repeated for 3 times. (200×)
To determine the binding of PLZ4 to canine TCC cell lines, whole cell binding assay was performed. PLZ4 was synthesized on TentaGel S NH2 resin beads (Rapp Polymere Gmbh, Germany) (Pegram, et al., J Clin Oncol (1998) 16:2659-2671), and incubated with single suspensions of five different canine carcinoma cell lines including K9TCC-PU, K9TCC-PU-AxA, K9TCC-PU-In, K9TCC-PU-AxC, and K9TCC-PU-Nk (kindly provided by Deborah Knapp at Purdue University, West Lafayette, Ind., USA) at 10^6 cells/ml. The negative control was normal urothelial cells obtained from dogs that were euthanized due to non-bladder-related disorders. Human bladder cancer cell line, 5637 were served as the positive control. If PLZ4 bound to cells in suspension, then the bead surface was covered with cells. Over 95% of the bead surface was covered with 5637 and K9TCC cells (FIG. 7A-a and b, respectively).

K9TCC-PU = experiment: Binding affinity by PLZ4-biotin / avidin-HRP on fixed K9TCC-PU cells; set-up: species or system canine; settings: restated in b239 without cell line, read-out: Kd50
Description: FIG. 8A-B. Binding affinity and biological effects of PLZ4 against canine TCC cell lines. A. Binding affinity of PLZ4 against K9TCC-PU and K9TCC-PU-In. Twenty thousands of K9TCC-PU and K9TCC-PU-In were seeded in 96 well plates. After culture for 24 hours, cells were fixed and incubated with different concentrations of PLZ4-biotin for 1.5 hours following avidin-HRP for another 1 hour. Cells treated with avidin-HRP only were served as background control. The color was developed using TMB substrate and read by ELISA readers. The experiment was performed in triplicates and repeated for 3 times. The mean value of the 3 experiments were shown. B. Biological effects of PLZ4 on canine TCC cell lines. Ten thousand K9TCC-PU-In and K9TCC-PU cells were seeded in the 96 well plates and treated with increasing concentrations of PLZ4 or PBS for 2 days. The cell proliferation assay was assessed by WST-8 assay per manufacturer's protocol. Cells treated with PBS were used as 100% control. Each group was performed in triplicate, repeated for 3 times. Mean values at each concentration are presented.
To further quantify the binding affinity, K9TCC-PU and K9TCC-PU-In cells were seeded in 96 well plates, fixed, and incubated with increasing concentrations of PLZ4-biotin followed by avidin-HRP. […]

5637 TCC cancer cells = experiment: Bead binding to 5637 cells in urine at pH 6.0; set-up: species or system human; settings: urine at pH 6.0, 4 hours, 37° C.
Description: The acidic environment in urine may change the 3-D structure of ligands and affect ligand binding. Here it was determined if the cancer-specific beads could bind to 5637 TCC cancer cells in urine. Cells were incubated with beads in urine at pH 6.0 for 4 hours at 37° C. 4-hour incubation was used to mimic the in vivo urine retention in patients and to permit conformational changes and protease digestion.

[3] = system: cells isolated from urine specimens of patients actively treated with BCG intravesical therapy; type: binding, human; settings: 4 consecutive patients with no evidence of bladder cancer

cQDGRMGFc ([dC]QDGRMGF[dC]; disulfide 1-9 (inferred)) [PLZ4, bladder cancer-specific ligand peptide]
binding to normal urothelial cells (normal urothelial cells): did not bind | binding to bladder TCC cell lines [1]: bound to all three bladder TCC cell lines | binding to normal canine bladder urothelial cells [2]: no cell binding | Kd (K9TCC-PU): 21.3 µM | binding to 5637 cells in urine (5637 TCC cancer cells): still able to bind cells in urine | binding to cells from urine of patients actively treated with BCG [3]: did not bind
